These results are taken from patent US6911537B2, “Xenobiotic compound modulated expression systems and uses therefor” (The Salk Institute for Biological Studies, priority 1998, dated 2005).

Structures are written as SMILES. Like-named read-outs stand apart in the source and are kept apart here.

The conditions of series [1]: clinical trials, of 2510 patients; cited from earlier work.
The next series relates to CYP3A11 gene. The following applies: single dose 24 h before sacrifice. As to the method: The animals were allowed free access to food and water at all times. […] When necessary, mice were treated with a single intraperitoneal injection of DEX (50 mg/kg), PCN (40 mg/kg), or CTZ (50 mg/kg).
To detect specific transcripts, [^32P]-cDNA probes labeled by Random Primer Labeling Kit (Boringher) were hybridized to the membranes. The probe used to detect transgene contains both the SXR cDNA and the SV40 sequences. […] The filters were subsequently stripped and rehybridized with a murine glyceraldehyde-3-phosphate dehydrogenase (GAPDH) cDNA probe for RNA loading normalization.
Tissues were harvested 24 h later and subjected to Northern blot analysis.

For series [2], the target named is T1, endogenous PXR (Rattus norvegicus, UniProt Q9R1A7).
T1 sequence (Q9R1A7 1-431): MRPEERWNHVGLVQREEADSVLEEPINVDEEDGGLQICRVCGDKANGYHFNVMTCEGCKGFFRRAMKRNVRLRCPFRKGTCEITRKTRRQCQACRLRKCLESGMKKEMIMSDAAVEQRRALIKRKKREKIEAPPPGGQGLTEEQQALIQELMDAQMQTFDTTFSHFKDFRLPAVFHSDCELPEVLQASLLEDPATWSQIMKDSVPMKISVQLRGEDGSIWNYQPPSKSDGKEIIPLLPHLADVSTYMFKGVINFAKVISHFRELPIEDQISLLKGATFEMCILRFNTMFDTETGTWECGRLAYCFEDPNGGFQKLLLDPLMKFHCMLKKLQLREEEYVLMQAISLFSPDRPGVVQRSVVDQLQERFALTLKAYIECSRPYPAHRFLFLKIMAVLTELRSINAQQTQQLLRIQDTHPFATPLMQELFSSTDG
Briefly: Human CYP3A4 cellular promoter reporter in primary rat hepatocytes, endogenous receptor. Conditions: rodent cellular environment (FIG. 8B). From the text: (§1) The PCR-amplified sequences and target mutagenesis were confirmed by DNA sequencing.
(§2) All compounds were purchased from Sigma.

The target of series [3] is T2, SXR (Homo sapiens, UniProt O75469).
T2 sequence (O75469 1-434): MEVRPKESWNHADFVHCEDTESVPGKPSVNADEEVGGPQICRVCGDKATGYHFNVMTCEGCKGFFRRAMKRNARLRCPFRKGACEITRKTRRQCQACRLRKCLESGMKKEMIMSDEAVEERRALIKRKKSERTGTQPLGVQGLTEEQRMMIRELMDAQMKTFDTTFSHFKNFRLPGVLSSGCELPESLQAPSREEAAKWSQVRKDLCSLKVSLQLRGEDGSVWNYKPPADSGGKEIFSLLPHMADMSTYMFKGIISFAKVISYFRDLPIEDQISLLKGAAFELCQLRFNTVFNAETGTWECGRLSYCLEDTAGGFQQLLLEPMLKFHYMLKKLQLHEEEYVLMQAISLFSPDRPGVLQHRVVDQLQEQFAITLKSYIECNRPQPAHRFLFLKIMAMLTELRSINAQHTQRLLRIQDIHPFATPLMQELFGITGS
As to the method: as §1, §2
(§3) A panel of natural and synthetic steroid and nonsteroid compounds were tested for their ability to activate SXR and/or PXR in transfection-based assays using primary rat hepatocytes as recipient cells and the cellular promoters of the rat CYP3A23 gene or the human CYP3A4 gene as reporters.

Series [4] deals with T1, endogenous PXR. Conditions: hepatocytes. As for the experimental part: as §1, §2, §3
A further series deals with T3, mouse PXR (Mus musculus, UniProt O54915).
T3 sequence (O54915 1-431): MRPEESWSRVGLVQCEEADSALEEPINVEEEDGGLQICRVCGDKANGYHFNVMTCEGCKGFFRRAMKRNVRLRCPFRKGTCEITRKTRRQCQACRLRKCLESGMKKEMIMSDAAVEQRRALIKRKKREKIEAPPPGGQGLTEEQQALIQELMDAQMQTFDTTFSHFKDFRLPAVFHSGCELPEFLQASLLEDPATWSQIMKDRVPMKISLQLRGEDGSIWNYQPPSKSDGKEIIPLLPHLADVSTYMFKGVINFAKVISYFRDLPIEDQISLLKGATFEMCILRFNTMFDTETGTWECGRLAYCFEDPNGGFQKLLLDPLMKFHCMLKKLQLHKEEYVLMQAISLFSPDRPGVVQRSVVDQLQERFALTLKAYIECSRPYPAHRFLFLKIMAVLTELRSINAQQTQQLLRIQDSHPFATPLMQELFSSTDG
Briefly: Transfection-based reporter assay in CV-1 cells, mouse PXR. The following applies: 50 μM, tamoxifen 5 μM (FIG. 7B). From the text: FIGS. 7A-C are bar graphs illustrating the ability of a panel of compounds to activate a representative of three members of the nuclear receptor superfamily, human SXR (FIG. 7A); mouse PXR (FIG. 7B); and human estrogen receptor alpha (hERα; FIG. 7C).
(Reporter assays use an easily measured gene product as a stand-in for the process of interest.)

The target of series [5] is T4, SXR (Homo sapiens, UniProt O75469).
T4 sequence (O75469 1-434): T2 sequence (O75469 1-434)
T4 sequence (P19793 1-462 partner): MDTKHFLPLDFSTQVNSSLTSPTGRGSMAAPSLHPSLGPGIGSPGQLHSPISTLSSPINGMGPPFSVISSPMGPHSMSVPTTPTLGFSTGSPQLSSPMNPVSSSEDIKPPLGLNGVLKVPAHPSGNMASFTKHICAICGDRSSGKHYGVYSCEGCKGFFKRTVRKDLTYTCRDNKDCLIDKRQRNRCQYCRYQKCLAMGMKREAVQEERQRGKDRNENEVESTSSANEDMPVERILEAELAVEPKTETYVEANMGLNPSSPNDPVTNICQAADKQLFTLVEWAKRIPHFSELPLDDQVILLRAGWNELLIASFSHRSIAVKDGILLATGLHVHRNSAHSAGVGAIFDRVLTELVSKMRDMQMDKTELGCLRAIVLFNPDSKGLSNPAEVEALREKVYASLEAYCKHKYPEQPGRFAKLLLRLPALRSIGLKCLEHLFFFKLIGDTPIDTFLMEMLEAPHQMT
The source holds these as a separate data set.
Source text: (§4) Thus, the protein coding region of SXR was PCR amplified and subcloned into NcoI and BamH1 sites of the vector pCDG1 (see Blumberg et al., supra). During this process the putative initiator Leu was converted to Met with a Kozak consensus sequence CCATGG.

Series [6] deals with T4, SXR. Briefly: Transfection-based reporter assay in CV-1 cells, GAL4-SXR or full-length SXR. Set-up: Activation of SXR response elements (DR-3, DR-4, DR-5) by full-length SXR: dose or concentration left out as unconfirmed. Conditions: for Activation of SXR in transfection-based assays: GAL4-SXR LBD chimera or full-length SXR, CV-1 cells, steroids at high doses, up to 50 mM [sic]; for Activation of SXR response elements (DR-3, DR-4, DR-5) by full-length SXR: cotransfection, panel of steroids as printed (FIG. 4).
Source text: as §4

In the case of `Cc1c(C)c2c(c(C)c1O)CCC(C)(COc1ccc(CC3SC(=O)NC3=O)cc1)O2` (stereo not shown) [troglitazone], the “Incidence of hepatotoxicity (alanine aminotransferase level > three times the upper limit of normal)” value in series [1] is on record as 1.9%.
For the compound `CC(=O)[C@H]1[C@H](C#N)C[C@H]2[C@@H]3CC=C4C[C@@H](O)CC[C@]4(C)[C@H]3CC[C@@]21C` [PCN, pregnenolone-16-carbonitrile], the “Induction of liver CYP3A11 expression in Alb-SXR transgenic mice” value in the series on CYP3A11 gene (RIF 5 mg/kg, BRL 20 mg/kg, troglitazone and ciglitazone 150 mg/kg by gavage, CTZ 50 mg/kg, PCN 40 mg/kg i.p.) is on record as “equally efficacious CYP3A11 inducer”. For the same compound, the “Induction of liver CYP3A11 expression in wild type / nontransgenic mice” value in the series on CYP3A11 gene (same doses as in transgenic mice) is given as “equally efficacious CYP3A11 inducer”. The “Activation of human CYP3A4 promoter reporter via endogenous PXR” value at endogenous PXR [2] is “can be activated”. Further, at SXR [3], the “Activation of CYP3A23 promoter reporter with mutated DR-3 element (DR3/M1, DR3/M2)” value is “abolished”; the “Inducibility of CYP3A23 promoter reporter with DR-3 replaced by IR-6 element (DR3/IR6)” value is recorded as “rescueS the inducibility”; the “Induction of CYP3A23 promoter reporter with co-transfection of SXR” value is recorded as “remained unchanged”. For the same compound, the “Activation of CYP3A23 promoter reporter in the absence of SXR” value at endogenous PXR [4] was “most potent and efficacious tested activators”. Moreover, the “Activation of mouse PXR” value on mouse PXR was “preferentially activated”. Moreover, at SXR [5], the “Activation of human SXR by compounds known to induce CYP3A4” value is given as “weak activator”. At SXR [6], the “Activation of SXR in transfection-based assays” value is “activated” and the “Activation of SXR response elements (DR-3, DR-4, DR-5) by full-length SXR” value is reported as “among the best activators”.
In the case of `C[C@]12CC[C@@H]3c4ccc(O)cc4CC[C@H]3[C@@H]1CC[C@@H]2O` [estradiol, 17β-estradiol], the “Induction of CYP3A23 promoter reporter with co-transfection of SXR” value on SXR [3] was “significant induction”. The “Activation of mouse PXR” value on mouse PXR is listed as “similarly activated”. At SXR [6] (50 μM, tamoxifen 5 μM (FIG. 7A)), the “Activation of human SXR by compounds known to induce CYP3A4” value is on record as “most potent activators”. Also, at SXR [6], the “Activation of SXR in transfection-based assays” value is “remarkably effective activators” and the “Activation of SXR response elements (DR-3, DR-4, DR-5) by full-length SXR” value is reported as “among the best activators”.
For the compound `C[C@]12CC[C@H]3[C@@H](CCC4=CC(=O)CC[C@@]43C)[C@@H]1CC[C@@H]2O` [testosterone], on mouse PXR, the “Activation of mouse PXR” value is reported as “similarly activated”. Also, the “Activation of SXR in transfection-based assays” value at SXR [5] is “activated”.
